The structures appear in SMILES notation.

In one assay the test system is BJ. The assay can be described thus: Cytotoxicity against human BJ cells after 72 hrs by calcein AM assay. The format is cell-based.
Settings: not given
On to `CC(=O)O[C@H]1CC[C@@]2(C)C(=CC[C@H]3[C@@H]4C[C@H](OC(C)=O)[C@H]([C@H](C)C(=O)C5=C(C)OC[C@H](C)C5)[C@@]4(C)C(=O)C[C@@H]32)C1`, for which the IC50 (as a rule, the point on the concentration scale where inhibition reaches its midpoint) is more than 50 µM.

`CC(=O)O[C@H]1CC[C@@]2(C)C(=CC[C@H]3[C@@H]4C[C@H](OC(C)=O)[C@H]([C@H](C)C(=O)C5=C(C)OC[C@H](C)C5)[C@@]4(C)CC[C@@H]32)C1`: the IC50 was more than 50 µM.

With `CC(=O)O[C@H]1CC[C@@]2(C)C(=CC[C@H]3[C@@H]4C[C@H](OC(C)=O)[C@H]([C@H](C)C(=O)C5=C(C)OC[C@H](C)C5)[C@@]4(C)[C@H](O)C[C@@H]32)C1`, the half-maximal inhibitory concentration (IC50) was more than 50 µM.

On to `C/C=C(\C[C@@H](C)CO)C(=O)[C@@H](C)[C@H]1[C@@H](OC(C)=O)C[C@H]2[C@@H]3CC=C4C[C@@H](OC(C)=O)CC[C@]4(C)[C@H]3CC(=O)[C@]12C`, for which the half-maximal inhibitory concentration (IC50) is more than 50 µM.

Another assay has as its system HeLa. Put plainly: Cytotoxicity against human HeLa cells after 72 hrs by calcein AM assay. It is filed as functional, cell-based.
Settings: not given
`CC(=O)O[C@H]1CC[C@@]2(C)C(=CC[C@H]3[C@@H]4C[C@H](OC(C)=O)[C@H]([C@H](C)C(=O)C5=C(C)OC[C@H](C)C5)[C@@]4(C)C(=O)C[C@@H]32)C1`: the half-inhibitory concentration (IC50) was more than 50 µM.

With `CC(=O)O[C@H]1CC[C@@]2(C)C(=CC[C@H]3[C@@H]4C[C@H](OC(C)=O)[C@H]([C@H](C)C(=O)C5=C(C)OC[C@H](C)C5)[C@@]4(C)CC[C@@H]32)C1`, the half-maximal inhibitory concentration (IC50) is more than 50 µM.

With `CC(=O)O[C@H]1CC[C@@]2(C)C(=CC[C@H]3[C@@H]4C[C@H](OC(C)=O)[C@H]([C@H](C)C(=O)C5=C(C)OC[C@H](C)C5)[C@@]4(C)[C@H](O)C[C@@H]32)C1`, the 50% inhibitory concentration (IC50) was more than 50 µM.

In the case of `C/C=C(\C[C@@H](C)CO)C(=O)[C@@H](C)[C@H]1[C@@H](OC(C)=O)C[C@H]2[C@@H]3CC=C4C[C@@H](OC(C)=O)CC[C@]4(C)[C@H]3CC(=O)[C@]12C`, the IC50 is more than 50 µM.

For the next assay, the system named is CCRF-CEM. The assay can be described thus: Cytotoxicity against human CEM cells after 72 hrs by calcein AM assay. The format is functional, cell-based.
Settings: not given
Turning to `CC(=O)O[C@H]1CC[C@@]2(C)C(=CC[C@H]3[C@@H]4C[C@H](OC(C)=O)[C@H]([C@H](C)C(=O)C5=C(C)OC[C@H](C)C5)[C@@]4(C)C(=O)C[C@@H]32)C1`, the IC50 was 10.5 µM.

As for `CC(=O)O[C@H]1CC[C@@]2(C)C(=CC[C@H]3[C@@H]4C[C@H](OC(C)=O)[C@H]([C@H](C)C(=O)C5=C(C)OC[C@H](C)C5)[C@@]4(C)CC[C@@H]32)C1`, the concentration for half-maximal inhibition (IC50) was 40.9 µM.

`CC(=O)O[C@H]1CC[C@@]2(C)C(=CC[C@H]3[C@@H]4C[C@H](OC(C)=O)[C@H]([C@H](C)C(=O)C5=C(C)OC[C@H](C)C5)[C@@]4(C)[C@H](O)C[C@@H]32)C1`: the IC50 was 13.9 µM.

For the compound `C/C=C(\C[C@@H](C)CO)C(=O)[C@@H](C)[C@H]1[C@@H](OC(C)=O)C[C@H]2[C@@H]3CC=C4C[C@@H](OC(C)=O)CC[C@]4(C)[C@H]3CC(=O)[C@]12C`, the IC50 was 19 µM.

Another assay relates to MCF7. The assay can be described thus: Cytotoxicity against human MCF7 cells after 72 hrs by calcein AM assay. It is filed as functional, cell-based. The conditions noted are these: MCF7, 72 h.
`CC(=O)O[C@H]1CC[C@@]2(C)C(=CC[C@H]3[C@@H]4C[C@H](OC(C)=O)[C@H]([C@H](C)C(=O)C5=C(C)OC[C@H](C)C5)[C@@]4(C)C(=O)C[C@@H]32)C1`: the IC50 is 47.1 µM.

For the compound `CC(=O)O[C@H]1CC[C@@]2(C)C(=CC[C@H]3[C@@H]4C[C@H](OC(C)=O)[C@H]([C@H](C)C(=O)C5=C(C)OC[C@H](C)C5)[C@@]4(C)CC[C@@H]32)C1`, the IC50 is more than 50 µM.

In the case of `CC(=O)O[C@H]1CC[C@@]2(C)C(=CC[C@H]3[C@@H]4C[C@H](OC(C)=O)[C@H]([C@H](C)C(=O)C5=C(C)OC[C@H](C)C5)[C@@]4(C)[C@H](O)C[C@@H]32)C1`, the half-maximal inhibitory concentration (IC50) was more than 50 µM.

Regarding `C/C=C(\C[C@@H](C)CO)C(=O)[C@@H](C)[C@H]1[C@@H](OC(C)=O)C[C@H]2[C@@H]3CC=C4C[C@@H](OC(C)=O)CC[C@]4(C)[C@H]3CC(=O)[C@]12C`, the half-maximal inhibitory concentration (IC50) was more than 50 µM.

Source of the values: ChEMBL document CHEMBL1955764, “Synthesis and biological activity of 23-ethylidene-26-hydroxy-22-oxocholestane derivatives from spirostanic sapogenins” (Eur J Med Chem, 2012).
